Consider four compounds from article PMC3404106, “Pharmacology of DB844, an Orally Active aza Analogue of Pafuramidine, in a Monkey Model of Second Stage Human African Trypanosomiasis” (PLoS Neglected Tropical Diseases, 2012).

SMILES strings stand for the structures. “Also recorded” adds a separate entry of the source.

Series [1] is described as follows: Pharmacokinetics (plasma and CSF) in infected monkeys after last DB844 dose. Conditions: for Tmax: po.
The nature of series [2]: Metabolism of DB844 in vervet monkey liver microsomes. The class given is in vitro ADME. Here is the method: The metabolism of DB844 was investigated using liver microsomes, prepared from a male vervet monkey by XenoTech, LLC (Lenexa, KS), in the presence of NADPH as described previously with modifications. Briefly, incubation mixtures (1 ml at pH7.4, in triplicate) contained 10 µM DB844 and 0.2 mg/ml monkey liver microsomes. After a 5-min equilibration period at 37°C, reactions were initiated with the addition of NADPH. Aliquots (50 µl) of the reaction mixtures were removed at 0, 5, 10, 15, 30, 60, 90, and 120 min and mixed with 25 µl of ice-cold acetonitrile. The mixtures were centrifuged (10,000×g for 5 min at 4°C) and the supernatants were analyzed by HPLC/UV using the same method as previously described for DB289 [22]. […] DB844 and metabolites were quantified using a single-concentration calibration curve generated using synthetic standards.
(Liver microsomes are vesicles of endoplasmic reticulum, rich in cytochrome P450 enzymes.)

Series [3] concerns 2nd stage HAT. Also noted: method as in PMID 19620327, PMID 19064893. Conditions: cited from earlier work.
The test system of series [4] is Trypanosoma brucei rhodesiense KETRI 2537. Also noted: method as in earlier work. Conditions: treatment initiated at 28 DPI; unpublished TRC-KARI data; cited from earlier work.
On the set-up of series [5]: method as in PMID 20721830. Conditions: extended phase I clinical trial, 14 day dose regimen of 100 mg bid; cited from earlier work.
On the set-up of series [6]: method as in PMID 17360833. The note with it: dosed orally to cynomolgus monkey at 5 mg/kg; cited from earlier work.

The Tmax is the time at which the peak concentration occurs. The Cmax is the highest concentration seen after dosing.

On to `N=C(N)c1ccc(-c2ccc(-c3ccc(C(=N)N)cn3)o2)cc1` [DB820], for which the “sporadic CSF concentration” value in series [1] (2/7 monkeys (571 and 624), between 24 and 96 h post dose) was less than 4 nM. In addition, the “detection in the CSF” value in series [1] (after last dose of DB844 6 mg/kg×14 days, samples at 1, 24, 96, 168 h and weekly) was “not detected”. Moreover, the concentration at 28 days in series [1] (monkey, in vivo, 6 mg/kg) was found to be 35 nM. The Tmax in series [1] (monkey, in vivo, 6 mg/kg, Tmax, plasma, after the 14th oral dose of DB844 at 6 mg/kg, n = 7, median, analyte = label) was 4.08 h; in series [1] (monkey, in vivo, 6 mg/kg, time of peak plasma concentration, after the last (14th) dose of DB844 at 6 mg/kg, analyte = label), 4 h. Moreover, the AUClast in series [1] (plasma, after the 14th oral dose of DB844 at 6 mg/kg, n = 7, geometric mean, analyte = label) worked out at 1400 nmol·days/L.

With `CO/N=C(/N)c1ccc(-c2ccc(-c3ccc(/C(N)=N/O)cc3)o2)nc1` [M1B], the “relative metabolite concentration in the drug/liver microsome mixture” value in series [2] is reported as “highest concentrations during the initial 20 minutes”.

As for `CONC(=N)c1ccc(-c2ccc(-c3ccc(C(=N)NOC)cc3)o2)cc1` [pafuramidine, 2,5-bis(4-amidinophenyl)furan-bis-O-methylamidoxime], the “cure against 2nd stage HAT in animal models” value in series [3] is recorded as “did not achieve cure”. The “cure in the vervet monkey model of CNS stage HAT” value in series [4] was “non-curative; also recorded: did not cure any monkey”. Further, in series [5], the “subjects who developed delayed renal insufficiency” value is listed as 6%. In series [6], the Cmax was 30 to 35 nM.

Consider `N=C(N)c1ccc(OCCCCCOc2ccc(C(=N)N)cc2)cc1` [pentamidine], for which the “cure against 2nd stage HAT in animal models” value in series [3] is on record as “did not achieve cure”. Moreover, the “cure in the vervet monkey model of CNS stage HAT” value in series [4] was “non-curative; also recorded: did not cure any monkey”.
